Values belong to the compound of their own block, whether it stands above or below them.
Tests used:
[1] = system: hepatic 14C-cholesterogenesis; test: Test A: hepatic 14C-cholesterogenesis, in vivo, in the rat
Text: Test A: Measurement of hepatic ^14 C-cholesterogenesis, in vivo, in the rat according to the method described by Bucher et al., J Biol. Chem., 222, 1-15, 1956 and Alberts et al., Proc. Natl. Acad. Sci. USA, 77 (7), 3957-3961, 1980.

[2] = target: T1, TXA2 receptors (Cavia porcellus, UniProt A0A286Y4I8); test: Test C: platelet aggregation induced by an agonist of TXA2 receptors (U 46619), in vitro, platelet-rich plasma; type: cell-based; settings: guinea pig platelet-rich plasma, U 46619 20 nM, 37° C.
T1 construct: platelet-rich plasmas (PRP) are prepared by aortic punction of anaesthetized animals; endogenous in cells; host or cells: guinea pig platelets in platelet-rich plasma
T1 sequence (A0A286Y4I8 1-347): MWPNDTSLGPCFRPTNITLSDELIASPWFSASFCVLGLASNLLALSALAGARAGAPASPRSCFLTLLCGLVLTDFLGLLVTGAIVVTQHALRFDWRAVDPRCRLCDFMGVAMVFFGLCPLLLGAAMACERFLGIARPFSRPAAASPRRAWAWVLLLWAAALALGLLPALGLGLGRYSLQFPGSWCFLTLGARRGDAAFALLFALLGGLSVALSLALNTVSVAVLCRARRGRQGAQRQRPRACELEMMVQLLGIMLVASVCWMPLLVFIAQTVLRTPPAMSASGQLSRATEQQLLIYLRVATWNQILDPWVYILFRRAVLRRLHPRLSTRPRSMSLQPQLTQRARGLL
Protocol: Test C: Measurement of platelet aggregation induced by an agonist of TXA2 receptors, in the guinea pig in the following manner: platelet-rich plasmas (PRP) are prepared by aortic punction of anaesthetized animals; the blood (9 vol.) is collected onto a 106 mM solution of trisodium citrate (1 vol.) to prevent coagulation. The PRPs are isolated by slow centrifuging (10 min, 380 g), and left to incubate for at least 3 min (37° C., with slow stirring) in an aggregometer of the Chronolog-400 type. The platelet aggregation is induced by addition of a direct agonist of the TXA2 receptors, such as, for example, the compound known by the code name U 46619 (at a concentration of 20 nM) according to Malmstein, Life Sci., 18, 169-178, 1976; the compounds of the invention are tested "in vitro".

[3] = system: total cholesterolaemia; test: Test B: total cholesterolaemia, in vivo, in the rat treated intravenously with triton WR 1339; settings: iv

IC50 [2]: 91 µM
SMILES: CCOC(=O)C[C@H](O)C[C@H](O)/C=C/C1=C(c2ccc(F)cc2)c2ccccc2OC12CCCC2 (relative stereo) [Compound No. 1, (+,-)Ethyl 6E-erythro-7-(4-(4-fluorophenyl)-3-spiro(2,1'-cyclopentyl-2H-1-benzopyran))-3,5-dihydroxyhepten-6-oate]
ED50 [1]: 0.17 mg/kg
ED25 [3]: 29 mg/kg

SMILES: COC(=O)C[C@H](O)C[C@H](O)/C=C/C1=C(c2ccccc2)c2ccccc2CC1(C)C (relative stereo) [Compound No. 2, (+,-)Methyl 6E-erythro-7-(1,2-dihydro-2,2-dimethyl-4-phenyl-3-naphthyl)-3,5-dihydroxyhept-6-enoate]
ED50 [1]: 0.6 mg/kg
ED25 [3]: 100 mg/kg

IC50 [2]: 28 µM
SMILES: CCOC(=O)C[C@H](O)C[C@H](O)/C=C/C1=C(c2ccc(Cl)cc2)c2ccccc2OC12CCCC2 (relative stereo) [Compound No. 19, (+,-)Ethyl 6E-erythro-7-(4-(4-chlorophenyl)-3-spiro(2,1'-cyclopentyl-2H-1-benzopyran))-3,5-dihydroxyhept-6-enoate]
ED50 [1]: 0.09 mg/kg
ED25 [3]: 110 mg/kg

SMILES: O=C(O)C[C@H](O)C[C@H](O)/C=C/C1=C(c2ccccc2)c2ccccc2SC12CCCC2 (relative stereo) [Compound No. 65, (+,-)Sodium 6E-erythro-3,5-dihydroxy-7-(4-phenyl-3-spiro(2,1'-cyclopentyl-2H-1-benzothiapyran))hept-6-enoate]
ED50 [1]: 0.38 mg/kg
ED25 [3]: 74 mg/kg

SMILES: CC[C@H](C)C(=O)O[C@H]1C[C@@H](C)C=C2C=C[C@H](C)[C@H](CC[C@@H]3C[C@@H](O)CC(=O)O3)[C@H]21 [Lovastatine, reference compound]
ED50 [1]: 0.39 mg/kg
ED25 [3]: 130 mg/kg
